Data taken from patent publication US9868954B2, “Reduction of TGFβ signaling in myeloid cells in the treatment of cancer” (The United States of America, as represented by the …, priority 2011, dated 2018).

System: Gr-1+CD11b+ myeloid cells from Tgfbr2^myeKO
Assay: Expression of IL-10, IL-4 and PF4 (Western blotting, quantitative PCR) in sorted Gr-1+CD11b+ myeloid cells cultured with pathway inhibitors
Assay type: cell-based, mice
Details: myeloid cells lacking Tgfbr2, cultured 6 hours with inhibitor; mRNA level and protein level
Experimental: Gr-1+CD11b+ myeloid cells were sorted with MACS from Tgfbr2^myeKO and cultured for 6 hours with an inhibitor of GSK3 (SB216763, Sigma) or PI3K (LY294002, Calbiochem) at different doses (2, 5, and 10 μM for the GSK3 inhibitor; 5, 10, and 20 μM for the PI3K inhibitor). SB216763 is a potent and selective ATP-competitive inhibitor of the serine/threonine protein kinas GSK α and β. […] GSK3 Western blotting was performed to detect inhibiting activity. The expression of IL-10, IL-4, and PF4 was examined using Western blotting and quantitative PCR.

Row | Structure (SMILES) | expression of IL-10, IL-4, and PF4
1 | Cc1ccc2nc(NCCN)c3ncc(C)n3c2c1 [BMS-345541] | did not show a significant effect
2 | Cn1cc(C2=C(c3ccc(Cl)cc3Cl)C(=O)NC2=O)c2ccccc21 [SB216763] | reversed the down-regulation of IL-10, IL-4, and PF4
